Measurements reported in patent US11865128B2, “Aminoglycosides and uses thereof in treating genetic disorders” (Technion Research & Development Foundation Limited, priority 2010, dated 2024).
≈ marks a conversion by molar mass, not a printed value. Entries after “also recorded” stand apart in the source; their conditions may differ. Like-named read-outs stand apart in the source and are kept apart here.

Legend:
[1] = Cell toxicity LC50 in HFF cells; format: cell-based; settings: human, HFF (human foreskin fibroblast) cells, read-out: Cell toxicity LC50 HFF
Description: (§1) In order to ensure suitable cell viability for each of the tested compounds at the concentrations tested, cell toxicity was evaluated for each compound by measuring the half-maximal-lethal concentration value (LC50 values) in HEK-293 and HFF (human foreskin fibroblasts) cells.
(§2) The percentages of cell viability were calculated as the ratio between the numbers of living cells in cultures grown in the presence of the tested compounds, versus cultures grown under the identical protocol but without the tested compound. The results represent averages of at least three independent experiments.
(§3) The half-maximal lethal concentration (LC50) values were obtained from fitting concentration-response curves to the data of at least three independent experiments, using GraFit 5 software.

[2] = target: Prokaryotic system (prokaryotic ribosome); test: Prokaryotic translation inhibition, coupled transcription/translation, luciferase detection; format: biochemical
Description: Prokaryotic and eukaryotic translation inhibition was quantified in coupled transcription/translation assays by using active luciferase detection, performed as described hereinabove. […] All the experiments were performed in duplicates and analogous results were obtained in three different experiments. In all biological tests, all tested aminoglycosides were in their sulfate salt forms. The concentrations reported refer to that of the free amine form of each aminoglycoside.
In all biological experiments conducted, all tested aminoglycosides were in their sulfate salt forms. The concentrations reported in Table 3 refer to that of the free amine form of each aminoglycoside. Prokaryotic and eukaryotic translation inhibition was quantified in coupled transcription/translation assays as previously described. The half-maximal concentration (IC50) values were obtained from fitting concentration response curves to the data of at least three independent experiments, using GraFit 5 software. All the experiments were performed in duplicates and analogous results were obtained in three different experiments.

[3] = tested on: nonsense mutation constructs R3X, R245X, Q70X, W1282X, G542X in HEK-293 cells; test: Ex vivo stop codon readthrough assay, p2luc constructs transfected to HEK-293 cells; format: cell-based, human; settings: ex vivo in HEK-293, all the mutations tested, FIGS. 4, 8-10
Description: For the ex vivo readthrough assays, the constructs harboring the R3X, R245X, Q70X and W1282X mutations were transfected to HEK-293 cells with Lipofectamine 2000 (Invitrogen) and addition of the tested compounds was performed 6 hours post transfection. The cells were harvested following 16 hours of incubation with the tested aminoglycosides. Stop codon readthrough was calculated as previously described (see, Grentzmann, G. et al., RNA, 1998, 4, p. 479).
The constructs were transfected into a human embryonic kidney cell line (HEK-293) and incubated with varying concentrations of NB122, NB123, NB54 and the control drug gentamicin, and the results are presented in FIGS. 4A-D.
As described hereinabove, the constructs of p2luc plasmid harboring the R3X, R245X, Q70X and W1282X mutations were transfected to HEK-293 cells using lipofectamine2000 and the tested compounds were added 6 hours post transfection. Cells were harvested after 16 hours incubation and luciferase activity was determined using the dual luciferase reporter assay system (Promega™). Stop codon readthrough was calculated as described previously, and the results are averages of at least three independent experiments.

[4] = Cell toxicity LC50 in HEK-293 cells; format: cell-based; settings: human, HEK-293 cells, read-out: Cell toxicity LC50 HEK-293
Description: as §1, §2, §3

[5] = tested on: Prokaryotic system (prokaryotic ribosome); settings: shown previously; cited from earlier work
B. subtilis ATCC6633 = test: Antibacterial activity MIC, double-microdilution; format: cell-based, Bacillus subtilis; settings: read-out: Antibacterial activity MIC B. subtilis ATCC6633
[6] = tested on: HFF (human foreskin fibroblasts) cells; test: Cell toxicity LC50 in HFF cells; format: cell-based
Description: as §1, §2, §3

E. coli R477/100 = test: Antibacterial activity MIC, double-microdilution; format: cell-based, Escherichia coli; settings: read-out: Antibacterial activity MIC E. coli R477/100
[7] = tested on: Eukaryotic system (eukaryotic cytoplasmic ribosome); test: Eukaryotic translation inhibition, coupled transcription/translation, luciferase detection; format: biochemical; settings: for Prokaryotic versus Eukaryotic selectivity IC50^Euk/IC50^Pro: ratio of eukaryotic to prokaryotic translation inhibition IC50
Text: Prokaryotic and eukaryotic translation inhibition was quantified in coupled transcription/translation assays by using active luciferase detection, performed as described hereinabove. […] In all biological tests, all tested aminoglycosides were in their sulfate salt forms. The concentrations reported refer to that of the free amine form of each aminoglycoside.
In all biological experiments conducted, all tested aminoglycosides were in their sulfate salt forms. The concentrations reported in Table 3 refer to that of the free amine form of each aminoglycoside. Prokaryotic and eukaryotic translation inhibition was quantified in coupled transcription/translation assays as previously described. The half-maximal concentration (IC50) values were obtained from fitting concentration response curves to the data of at least three independent experiments, using GraFit 5 software.

HEK-293 cells = test: Cell toxicity LC50 in HEK-293 cells; format: cell-based
Description: as §1, §2, §3

[8] = tested on: nonsense mutation constructs R3X, R245X, G542X, W1282X, Q70X, R3381X (PCDH15, CFTR, IDUA, Dystrophin); test: In vitro stop codon readthrough assay, p2Luc dual luciferase, TNT reticulocyte lysate; format: biochemical; settings: cell-free, mutations tested; comparison in words from FIGS. 2, 3, 5-7
Text: DNA fragments derived from PCDH15, CFTR, Dystrophin and IDUA cDNAs, including the tested nonsense mutation or the corresponding wild type (wt) codon, and four to six upstream and downstream flanking codons were created by annealing following pairs of complementary oligonucleotides:
The fragments were inserted in frame into the polylinker of the p2Luc plasmid between either BamHI and SacI (p.R3X and p.R245X), or SalI and SacI (all the rest) restriction sites.
For the in vitro readthrough assays, the obtained plasm ids, with addition of the tested aminoglycosides were transcribed and translated using the TNT Reticulocyte Lysate Quick Coupled Transcription/Translation System. Luciferase activity was determined after 90 minutes of incubation at 30° C., using the Dual Luciferase Reporter Assay System (Promega™).
Initially, the influence of the chiral C5″-methyl group on readthrough potential was evaluated on the pseudo-trisaccharides NB118 and NB119 by using a dual luciferase reporter assay system as described hereinabove. Briefly, DNA fragments were cloned between BamHI and SacI restriction sites of the p2luc vector and the obtained constructs were transcribed and translated using TNT quick coupled transcription/translation system. The amount of the translated products was evaluated using the dual luciferase reporter assay system and used to calculate the suppression level.

[9] = Table 2, read-out: Translation Inhibition Prokaryotic system IC50
[10] = Table 3, read-out: Translation Inhibition IC50^Pro
[11] = Table 1, read-out: Translation inhibition Prokaryotic system IC50
[12] = Table 1, read-out: Translation inhibition Eukaryotic System IC50
[13] = Table 2, read-out: Translation Inhibition Eukaryotic System IC50
[14] = Table 3, read-out: Translation Inhibition IC50^Euk

Row | Compound | IC50 [2, 9] [µM] | IC50 [2, 10] [µM] | observed efficacy of aminoglycoside-induced readthrough, order [3] | weaker inhibitors of prokaryotic translation than gentamicin and paromomycin [5] | CC50 ([6]; Table 2) [µM] | IC50 [2, 11] [µM] | MIC (E. coli R477/100; Table 2) [µM] | IC50 [7, 12] [µM] | IC50 [7, 13] [µM] | IC50 [7, 14] [µM] | Prokaryotic versus Eukaryotic selectivity IC50^Euk/IC50^Pro [7] | CC50 (HEK-293 cells; Table 2) [µM] | MIC (B. subtilis ATCC6633; Table 2) [µM] | in vitro readthrough activity (stop codon suppression level) [8] | further results
1 | C[C@@H](O)C1O[C@H](O[C@@H]2C(N)C[C@@H](N)[C@@H](O)C2O[C@@H]2O[C@H](CN)[C@H](O)C2O)[C@@H](N)C(O)[C@@H]1O (some centres unmarked) [NB74, reference compound] | 1.13 ± 0.12 | 1.13 ± 0.12 | NB124>NB125>NB74>gentamicin | about 10 fold | – | – | – | – | – | – | – | – | – | – | CC50 ([1]; Table 2): 21300 ± 1720 µM; CC50 ([4]; Table 2): 22200 ± 1060 µM; MIC (B. subtilis ATCC6633; Bacillus subtilis, ATCC6633, Table 2): 42 µM (≈ 19.7 µg/mL)
2 | Gentamicin [reference compound] | 0.028 ± 0.004 | 0.028 ± 0.004 | NB127 NB128>NB84>gentamicin | – | 3210 ± 310 | 0.028 ± 0.004 | 6 | 62 ± 9 | 62 ± 9 | 62 ± 9 | 2,214 | 2650 ± 540 | <0.75 | – | CC50 ([6]; Table 1): 3200 ± 300 µM; observed efficacy of aminoglycoside-induced readthrough, order ([3]; listed as gentamicin): NB122≥NB123>NB54>gentamicin; also recorded: NB124>NB125>NB74>gentamicin; MIC (E. coli R477/100; Table 1): 6 µM; more selective to prokaryotic versus eukaryotic ribosome [7]: 2,214 fold; CC50 (HEK-293 cells; Table 1): 2500 ± 300 µM; MIC (B. subtilis ATCC6633; Table 1, free amine concentration, sulfate salts tested): <0.75 µM
3 | CC(N)C1OC(OC2C(O)C(NC(=O)C(O)CCN)CC(N)C2OC2OC(C(C)O)C(O)C(O)C2N)C(O)C1O [NB127, 6′-(R)-Methyl-5-O-(5-amino-5,6-dideoxy-α-L-talofuranosyl)-1-N—[(S)-4-amino-2-hydroxy-butanoyl] paromamine] | 1.75 ± 0.274 | 1.75 ± 0.274 | NB127 NB128>NB84>gentamicin | – | 6480 ± 260 | – | 384 (≈ 224 µg/mL) | – | 0.73 ± 0.07 | 0.73 ± 0.07 | 0.4 | 5090 ± 270 | 192 (≈ 112 µg/mL) | significantly stronger readthrough inducers than the corresponding counterparts | –
4 | C[C@@H](N)[C@H]1O[C@@H](O[C@@H]2[C@@H](O)[C@H](NC(=O)[C@@H](O)CCN)C[C@H](N)[C@H]2O[C@H]2O[C@H]([C@@H](C)O)[C@@H](O)[C@H](O)[C@H]2N)[C@H](O)[C@@H]1O [NB128, 6′-(R)-Methyl-5-O-(5-amino-5,6-dideoxy-β-D-allofuranosyl)-1-N—[(S)-4-amino-2-hydroxy-butanoyl] paromamine] | 1.75 ± 0.145 | 1.75 ± 0.145 | NB127 NB128>NB84>gentamicin | – | 2780 ± 110 | – | 384 (≈ 224 µg/mL) | – | 0.89 ± 0.07 | 0.89 ± 0.07 | 0.5 | 5350 ± 310 | 96 (≈ 56 µg/mL) | significantly stronger readthrough inducers than the corresponding counterparts | –
5 | NC[C@H]1O[C@@H](O[C@@H]2C(O)[C@H](N)CC(N)[C@H]2O[C@H]2OC(CO)[C@@H](O)[C@H](O)C2N)C(O)[C@H]1O (some centres unmarked) [NB30, reference compound] | – | 0.46 ± 0.05 | – | about 10 fold | – | 0.46 ± 0.05 | – | 31 | – | 31 ± 4 | 68 | – | – | – | CC50 ([1]; Table 1): 21800 ± 900 µM; MIC (E. coli R477/100; Escherichia coli, R477/100, Table 1): 790 µM (≈ 359 µg/mL); CC50 ([4]; Table 1): 21400 µM; MIC (B. subtilis ATCC6633; Bacillus subtilis, ATCC6633, Table 1, free amine concentration, sulfate salts tested): 100 µM
6 | C[C@@H](O)C1O[C@H](O[C@@H]2C(N)C[C@@H](N)C(O)[C@H]2O[C@@H]2O[C@H]([C@@H](C)N)[C@H](O)C2O)C(N)[C@@H](O)[C@@H]1O (stereo partly drawn) [NB125, 6′-(R)-Methyl-5-O-(5-amino-5,6-dideoxy-β-D-allofuranosyl)-paromamine] | 1.86 ± 0.173 | 1.86 ± 0.173 | NB124>NB125>NB74>gentamicin | – | 7590 ± 180 | – | 1536 (≈ 741 µg/mL) | – | 7.96 ± 0.27 | 7.96 ± 0.27 | 4.3 | 16500 ± 3100 | 96 (≈ 46.3 µg/mL) | smaller comparatively | –
